Data reported in article PMC9228535, “Antistaphylococcal Activities and ADME-Related Properties of Chlorinated Arylcarbamoylnaphthalenylcarbamates” (Pharmaceuticals, 2022).
Converted amounts (≈) assume the structure as drawn.

Assays:
[1] = Lipophilicity determination by RP-HPLC (log k, log D); assay type: physicochemical
Protocol: Lipophilicity was measured by reversed-phase high performance liquid chromatography (RP-HPLC) under isocratic conditions with methanol as the organic modifier in the aqueous mobile phase and the logarithm of the capacity factor k was calculated, which is used as the lipophilicity index converted to the log P scale. In addition to the log k values, the logarithm of the distribution coefficient DpH at pH 6.5 and 7.4 was determined to clarify the behavior of the compounds under physiological conditions and possible ionization. Instead of water, a buffer of suitable pH was used as part of the mobile phase. In addition to the above-mentioned experimental methods, commercially available ChemBioDraw Ultra 13.0 and ACD/Percepta ver. […] In addition to lipophilicity, other parameters discussed in Ro5, such as molecular weight, number of H-bond donors/acceptors, as well as parameters not reported in Ro5, but characterizing the physicochemical properties of the prepared molecules, such as number of rotatable bonds, were predicted using ACD/Percepta. Moreover, for each R substituent, bulkiness expressed as molar volume (MV [cm^3]), a parameter describing the tail length/branching of each carbamates, was calculated.
A HPLC separation module Agilent 1200 Series (Agilent Technologies, Santa Clara, CA, USA) equipped with a Dual Absorbance Detector (DAD SL G1315C, Agilent Technologies) was used. A chromatographic column Symmetry® C18 5 μm, 4.6 × 250 mm, Part No. W21751W016 (Waters Corp, Milford, MA, USA) was used. The HPLC separation process was monitored by ChemStation for LC 3D systems (Agilent Technologies). […] The total flow of the column was 1.0 mL/min, injection 20 μL, column temperature 40 °C, and sample temperature 10 °C. The detection wavelength of 210 nm was chosen. A KI methanolic solution was used for the determination of the dead times (tD). Retention times (tR) were measured in minutes. The capacity factors k were calculated according to the formula k = (tR − tD)/tD, where tR is the retention time of the solute, and tD is the dead time obtained using an unretained analyte. The distribution coefficients DpH were calculated according to the formula DpH = (tR − tD)/tD. Each experiment was repeated three times.

MRSA 63718 = assay: MBC, agar aliquot subculture method; assay type: cell-based; conditions: Staphylococcus aureus, MRSA
Protocol: (§1) All the investigated compounds were screened for in vitro antibacterial activity against the reference and quality control strain Staphylococcus aureus ATCC 29213 and clinical isolates of methicillin-resistant S. aureus (MRSA) 63718, SA 630, and SA 3202 [14]. Activities are expressed as the minimum inhibitory concentrations (MICs), see Table 2. In addition to the MICs, the minimum bactericidal concentrations (MBCs) were also determined.
(§2) For the S. aureus and MRSA isolates, the agar aliquot subculture method was used as a test for bactericidal agents. After the MIC value determination, the inoculum was transferred to Mueller–Hinton (Oxoid) agar using a multipoint inoculator. The plates were incubated in a thermostat at 37 °C for 24 h. The lowest concentration of test compound at which ≤5 colonies were obtained was then evaluated as MBC, corresponding to a 99.9% decrease in CFU relative to the original inoculum.

MRSA SA 3202 = assay: MBC, agar aliquot subculture method; assay type: cell-based; conditions: Staphylococcus aureus
Protocol: as §1, §2

MRSA SA 630 = assay: MBC, agar aliquot subculture method; assay type: cell-based; conditions: Staphylococcus aureus
Protocol: as §1, §2

[2] = system: Staphylococcus aureus ATCC 29213; assay: MBC, agar aliquot subculture method; assay type: cell-based; conditions: ATCC29213
Protocol: as §1, §2

[3] = system: S. aureus and MRSA isolates; assay: Antistaphylococcal MIC, summary over strains; assay type: cell-based, Staphylococcus aureus; conditions: Staphylococcus aureus, read-out: MICs
Protocol: as §1, with “determined. […] MBC values that meet this requirement, i.e., the compound is bactericidal, are indicated in bold in Table 2.” for “determined.”
In vitro antibacterial activity of the synthesized compounds was evaluated against representatives of multidrug-resistant bacteria, three clinical isolates of methicillin-resistant S. aureus: clinical isolate of animal origin, MRSA 63718 (Department of Infectious Diseases and Microbiology, Faculty of Veterinary Medicine, University of Veterinary Sciences Brno, Czech Republic), carrying the mecA gene; and MRSA SA 630 [46] and MRSA SA 3202 [46] (National Institute of Public Health, Prague, Czech Republic), both of human origin. Suspected colonies were confirmed by PCR; a 108bp fragment specific for S. aureus was detected. All isolates were tested for the presence of the mecA gene encoding methicillin resistance. […] Vancomycin-susceptible methicillin-susceptible S. aureus (VS-MSSA) ATCC 29213, obtained from the American Type Culture Collection, was used as the reference and quality control strain. Enterococcus faecalis ATCC 29212 was obtained from the American Type Culture Collection and used as the reference and quality control strain.
The minimum inhibitory concentrations (MICs) were evaluated by the microtitration broth method according to the CLSI [64, 65] with some modifications. […]

**Q.** Which results are given for `CCNC(=O)Oc1c(C(=O)Nc2cc(Cl)c(Cl)cc2Cl)ccc2ccccc12` [Compound 2, 2-[N-(2,4,5-Trichlorophenyl)carbamoyl]naphthalen-1-yl ethyl carbamate]?
**A.** lipophilicity (experimental log k/log D, approximate) [1]: ca. 0.83; log D6.5 ([1]; RP-HPLC, MeOH 72%/acetate buffered saline pH 6.5): 0.8294; log D7.4 ([1]; RP-HPLC, MeOH 72%/acetate buffered saline pH 7.4): 0.8339; log k ([1]; RP-HPLC, MeOH 72%/water 28%): 0.8249; MBC (MRSA 63718): 0.286 µM (≈ 0.125 µg/mL); MBC (MRSA SA 3202): 0.073 µM (≈ 0.032 µg/mL); MBC (MRSA SA 630): 0.144 µM (≈ 0.063 µg/mL); MBC [2]: 0.018 µM (≈ 0.00788 µg/mL); MIC [3]: 0.018 to 0.064 µM (≈ 0.00788 to 0.028 µg/mL)
